Test results: paper PMC11864979, “First-in-class ultralong-target-residence-time p38α inhibitors as a mitosis-targeted therapy for colorectal cancer” (Nature Cancer, 2025)
Where two headings read alike, the source gives them in different places.

Tests used:
Test in all cases: selectivity profiling in a panel of 340 wild-type kinases (Reaction Biology Europe)
Assay type in all cases: binding
340 wild-type kinases [1] = target: T1, 340 wild-type kinases (Homo sapiens, UniProt Q14164)
T1 construct: purchased Reaction Biology Europe
T1 sequence (Q14164 1-716): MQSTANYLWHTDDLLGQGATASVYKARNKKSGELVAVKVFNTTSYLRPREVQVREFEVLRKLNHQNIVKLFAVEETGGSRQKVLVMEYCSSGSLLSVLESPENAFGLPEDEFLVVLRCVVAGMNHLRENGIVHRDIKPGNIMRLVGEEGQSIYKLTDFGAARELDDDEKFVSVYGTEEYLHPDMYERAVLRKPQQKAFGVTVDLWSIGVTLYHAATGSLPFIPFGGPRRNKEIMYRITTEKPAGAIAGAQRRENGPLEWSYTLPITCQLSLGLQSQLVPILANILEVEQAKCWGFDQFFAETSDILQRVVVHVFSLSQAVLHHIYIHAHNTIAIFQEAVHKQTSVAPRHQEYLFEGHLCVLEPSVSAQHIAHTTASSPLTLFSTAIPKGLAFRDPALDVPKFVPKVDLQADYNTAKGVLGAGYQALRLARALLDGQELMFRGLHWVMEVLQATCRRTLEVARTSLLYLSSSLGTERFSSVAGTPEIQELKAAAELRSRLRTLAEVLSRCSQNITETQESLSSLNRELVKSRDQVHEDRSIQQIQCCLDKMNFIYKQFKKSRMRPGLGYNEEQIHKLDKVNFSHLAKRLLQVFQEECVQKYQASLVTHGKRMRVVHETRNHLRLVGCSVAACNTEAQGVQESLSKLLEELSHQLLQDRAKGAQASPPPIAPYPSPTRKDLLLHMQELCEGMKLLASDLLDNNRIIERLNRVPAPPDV

340 wild-type kinases [2] = target: T2, 340 wild-type kinases (Homo sapiens, UniProt P48730)
T2 construct: purchased Reaction Biology Europe
T2 sequence (P48730 whole entry): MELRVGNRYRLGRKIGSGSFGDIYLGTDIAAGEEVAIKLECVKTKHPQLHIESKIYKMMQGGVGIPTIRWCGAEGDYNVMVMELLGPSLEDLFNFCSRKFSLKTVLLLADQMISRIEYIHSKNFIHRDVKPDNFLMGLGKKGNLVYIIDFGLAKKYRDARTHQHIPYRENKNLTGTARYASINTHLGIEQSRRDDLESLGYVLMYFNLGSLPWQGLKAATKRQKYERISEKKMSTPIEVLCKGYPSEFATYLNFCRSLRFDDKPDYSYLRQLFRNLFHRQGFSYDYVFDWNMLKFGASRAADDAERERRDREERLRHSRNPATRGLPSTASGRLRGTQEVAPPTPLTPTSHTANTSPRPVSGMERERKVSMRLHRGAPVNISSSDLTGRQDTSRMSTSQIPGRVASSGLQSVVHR

340 wild-type kinases [3] = target: T3, 340 wild-type kinases (Homo sapiens, UniProt Q15349)
T3 construct: purchased Reaction Biology Europe
T3 sequence (Q15349 whole entry): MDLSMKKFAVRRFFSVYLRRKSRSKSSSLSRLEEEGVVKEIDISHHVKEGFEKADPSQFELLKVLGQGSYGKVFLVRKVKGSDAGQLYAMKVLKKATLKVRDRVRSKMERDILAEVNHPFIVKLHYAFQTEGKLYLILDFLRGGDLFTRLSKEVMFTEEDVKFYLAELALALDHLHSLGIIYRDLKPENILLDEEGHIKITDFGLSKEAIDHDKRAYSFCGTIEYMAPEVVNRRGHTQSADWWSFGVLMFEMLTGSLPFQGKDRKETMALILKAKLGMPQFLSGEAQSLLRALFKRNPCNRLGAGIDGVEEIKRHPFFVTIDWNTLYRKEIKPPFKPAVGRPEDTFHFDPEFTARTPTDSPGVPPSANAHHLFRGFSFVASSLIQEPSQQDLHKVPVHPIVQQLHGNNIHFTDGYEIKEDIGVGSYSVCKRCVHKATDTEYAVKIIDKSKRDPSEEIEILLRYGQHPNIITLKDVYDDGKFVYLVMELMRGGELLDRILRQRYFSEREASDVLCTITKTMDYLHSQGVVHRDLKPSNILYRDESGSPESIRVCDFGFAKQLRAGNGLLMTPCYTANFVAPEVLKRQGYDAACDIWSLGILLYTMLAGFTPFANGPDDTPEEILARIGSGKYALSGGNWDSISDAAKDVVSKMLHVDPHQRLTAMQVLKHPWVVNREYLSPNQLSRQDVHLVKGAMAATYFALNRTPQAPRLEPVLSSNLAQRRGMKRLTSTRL

340 wild-type kinases [4] = target: T4, 340 wild-type kinases (Homo sapiens, UniProt Q02156)
T4 construct: purchased Reaction Biology Europe
T4 sequence (Q02156 1-737): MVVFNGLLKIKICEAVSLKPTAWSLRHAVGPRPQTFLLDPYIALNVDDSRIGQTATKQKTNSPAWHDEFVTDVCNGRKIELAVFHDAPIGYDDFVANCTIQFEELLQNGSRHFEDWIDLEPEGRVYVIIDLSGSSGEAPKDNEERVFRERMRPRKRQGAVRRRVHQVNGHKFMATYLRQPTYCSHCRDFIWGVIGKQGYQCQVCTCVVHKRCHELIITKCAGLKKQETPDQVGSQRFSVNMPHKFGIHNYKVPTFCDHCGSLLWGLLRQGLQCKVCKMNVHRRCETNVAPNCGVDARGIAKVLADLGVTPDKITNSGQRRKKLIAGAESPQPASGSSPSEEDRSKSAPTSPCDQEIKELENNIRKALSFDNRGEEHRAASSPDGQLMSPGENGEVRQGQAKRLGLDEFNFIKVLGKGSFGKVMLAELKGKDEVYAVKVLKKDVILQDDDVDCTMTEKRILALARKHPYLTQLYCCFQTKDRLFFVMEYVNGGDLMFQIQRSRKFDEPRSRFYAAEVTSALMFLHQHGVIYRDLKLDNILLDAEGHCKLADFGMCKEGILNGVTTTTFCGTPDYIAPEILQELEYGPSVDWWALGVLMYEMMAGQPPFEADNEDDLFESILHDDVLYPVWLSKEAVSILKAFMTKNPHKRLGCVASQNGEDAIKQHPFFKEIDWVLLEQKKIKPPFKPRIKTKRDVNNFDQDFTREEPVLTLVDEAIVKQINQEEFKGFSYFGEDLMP

340 wild-type kinases [5] = target: T5, 340 wild-type kinases (Homo sapiens, UniProt Q96SB4)
T5 construct: purchased Reaction Biology Europe
T5 sequence (Q96SB4 whole entry): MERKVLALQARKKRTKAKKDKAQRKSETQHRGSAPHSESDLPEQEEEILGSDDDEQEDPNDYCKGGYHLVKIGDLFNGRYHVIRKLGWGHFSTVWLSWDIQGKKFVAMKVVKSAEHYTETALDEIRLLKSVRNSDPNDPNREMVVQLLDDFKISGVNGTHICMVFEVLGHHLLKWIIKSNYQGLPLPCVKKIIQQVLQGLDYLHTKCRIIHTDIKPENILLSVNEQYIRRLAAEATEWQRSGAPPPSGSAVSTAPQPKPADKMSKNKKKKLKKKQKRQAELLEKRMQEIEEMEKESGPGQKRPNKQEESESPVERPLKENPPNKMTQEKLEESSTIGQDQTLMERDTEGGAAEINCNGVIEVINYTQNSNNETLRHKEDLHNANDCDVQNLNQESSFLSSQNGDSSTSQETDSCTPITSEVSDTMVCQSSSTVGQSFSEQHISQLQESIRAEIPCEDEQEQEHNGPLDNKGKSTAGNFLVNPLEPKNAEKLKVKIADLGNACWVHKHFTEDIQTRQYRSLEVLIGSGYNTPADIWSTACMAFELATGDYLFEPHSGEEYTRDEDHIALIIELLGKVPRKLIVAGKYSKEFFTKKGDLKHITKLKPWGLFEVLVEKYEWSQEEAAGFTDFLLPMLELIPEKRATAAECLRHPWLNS

340 wild-type kinases [6] = target: T6, 340 wild-type kinases (Homo sapiens, UniProt Q15303)
T6 construct: purchased Reaction Biology Europe
T6 sequence (Q15303 26-1308): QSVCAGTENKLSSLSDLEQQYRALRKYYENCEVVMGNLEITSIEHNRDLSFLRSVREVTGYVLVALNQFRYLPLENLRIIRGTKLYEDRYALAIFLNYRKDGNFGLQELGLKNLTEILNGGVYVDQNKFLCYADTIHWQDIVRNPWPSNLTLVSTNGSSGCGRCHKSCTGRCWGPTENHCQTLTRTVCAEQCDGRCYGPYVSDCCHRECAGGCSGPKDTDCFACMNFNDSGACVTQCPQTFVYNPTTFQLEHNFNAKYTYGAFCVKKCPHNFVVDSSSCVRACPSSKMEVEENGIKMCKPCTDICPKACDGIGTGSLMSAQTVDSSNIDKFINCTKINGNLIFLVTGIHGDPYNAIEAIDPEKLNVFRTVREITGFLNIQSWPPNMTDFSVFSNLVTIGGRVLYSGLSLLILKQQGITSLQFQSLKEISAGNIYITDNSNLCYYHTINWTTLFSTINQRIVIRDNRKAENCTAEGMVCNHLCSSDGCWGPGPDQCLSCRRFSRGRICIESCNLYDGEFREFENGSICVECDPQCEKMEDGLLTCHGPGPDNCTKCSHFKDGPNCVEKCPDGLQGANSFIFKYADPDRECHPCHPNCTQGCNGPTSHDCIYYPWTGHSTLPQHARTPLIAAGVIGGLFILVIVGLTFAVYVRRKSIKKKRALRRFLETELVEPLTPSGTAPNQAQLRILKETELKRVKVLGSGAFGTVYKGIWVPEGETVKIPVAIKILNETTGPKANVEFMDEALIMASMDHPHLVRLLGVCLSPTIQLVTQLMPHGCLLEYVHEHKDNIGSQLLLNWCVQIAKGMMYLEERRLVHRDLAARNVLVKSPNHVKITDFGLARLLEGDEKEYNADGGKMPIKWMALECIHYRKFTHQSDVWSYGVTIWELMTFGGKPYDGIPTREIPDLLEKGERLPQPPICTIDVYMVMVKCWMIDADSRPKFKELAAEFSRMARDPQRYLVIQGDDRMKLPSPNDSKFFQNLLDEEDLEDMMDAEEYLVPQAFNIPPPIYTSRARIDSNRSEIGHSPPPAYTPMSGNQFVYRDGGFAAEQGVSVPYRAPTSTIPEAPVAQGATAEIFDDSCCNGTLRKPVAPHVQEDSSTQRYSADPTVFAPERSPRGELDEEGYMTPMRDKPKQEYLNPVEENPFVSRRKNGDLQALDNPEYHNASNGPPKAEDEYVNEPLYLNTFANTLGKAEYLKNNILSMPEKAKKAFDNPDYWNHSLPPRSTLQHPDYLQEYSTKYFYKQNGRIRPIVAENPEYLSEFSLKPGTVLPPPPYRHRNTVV

340 wild-type kinases [7] = target: T7, 340 wild-type kinases (Homo sapiens, UniProt Q8NE63)
T7 construct: purchased Reaction Biology Europe
T7 sequence (Q8NE63 1-616): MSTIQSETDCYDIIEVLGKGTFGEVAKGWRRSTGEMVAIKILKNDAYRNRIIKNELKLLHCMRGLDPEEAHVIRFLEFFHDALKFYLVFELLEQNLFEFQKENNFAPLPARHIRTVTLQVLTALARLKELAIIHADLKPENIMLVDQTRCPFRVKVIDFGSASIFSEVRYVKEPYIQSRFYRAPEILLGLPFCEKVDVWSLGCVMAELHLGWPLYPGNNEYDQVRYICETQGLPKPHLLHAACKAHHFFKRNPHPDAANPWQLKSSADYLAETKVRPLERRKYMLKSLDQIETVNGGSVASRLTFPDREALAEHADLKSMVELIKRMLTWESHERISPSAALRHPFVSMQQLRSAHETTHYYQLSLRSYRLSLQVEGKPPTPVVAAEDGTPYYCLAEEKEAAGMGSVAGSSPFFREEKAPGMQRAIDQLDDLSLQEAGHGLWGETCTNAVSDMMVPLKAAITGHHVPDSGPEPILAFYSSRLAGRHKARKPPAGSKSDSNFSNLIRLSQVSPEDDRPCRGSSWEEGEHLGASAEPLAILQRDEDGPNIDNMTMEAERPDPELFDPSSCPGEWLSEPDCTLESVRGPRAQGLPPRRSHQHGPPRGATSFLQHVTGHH

Compound: CNC(=O)c1ccc2c(c1)C(=O)c1ccc(Nc3ccc(F)c(NC(=O)C4CC4)c3)cc1CC2 [Compound 2015]
- remaining activity at 0.2 µM (340 wild-type kinases [1]; 0.2 µM 2015, read-out: IKKepsilon residual activity): 103%
- remaining activity at 1 µM (340 wild-type kinases [1]; 1 µM 2015, read-out: IKKepsilon residual activity): 92.6%
- remaining activity at 0.2 µM (340 wild-type kinases [1]; IKKepsilon, 0.2 µM, read-out: residual activity): 103%
- remaining activity at 1 µM (340 wild-type kinases [1]; IKKepsilon, 1 µM, read-out: residual activity): 92.6%
- remaining activity at 0.2 µM (340 wild-type kinases [2]; 0.2 µM 2015, read-out: CK1delta residual activity): 117%
- remaining activity at 1 µM (340 wild-type kinases [2]; 1 µM 2015, read-out: CK1delta residual activity): 111%
- remaining activity at 0.2 µM (340 wild-type kinases [2]; CK1delta, 0.2 µM, read-out: residual activity): 117%
- remaining activity at 1 µM (340 wild-type kinases [2]; CK1delta, 1 µM, read-out: residual activity): 111%
- remaining activity at 0.2 µM (340 wild-type kinases [3]; 0.2 µM 2015, read-out: RPS6KA2 residual activity): 84.7%
- remaining activity at 1 µM (340 wild-type kinases [3]; 1 µM 2015, read-out: RPS6KA2 residual activity): 91%
- remaining activity at 0.2 µM (340 wild-type kinases [3]; RPS6KA2, 0.2 µM, read-out: residual activity): 84.7%
- remaining activity at 1 µM (340 wild-type kinases [3]; RPS6KA2, 1 µM, read-out: residual activity): 91%
- remaining activity at 0.2 µM (340 wild-type kinases [4]; 0.2 µM 2015, read-out: PKCepsilon residual activity): 83.1%
- remaining activity at 1 µM (340 wild-type kinases [4]; 1 µM 2015, read-out: PKCepsilon residual activity): 90.5%
- remaining activity at 0.2 µM (340 wild-type kinases [4]; PKCepsilon, 0.2 µM, read-out: residual activity): 83.1%
- remaining activity at 1 µM (340 wild-type kinases [4]; PKCepsilon, 1 µM, read-out: residual activity): 90.5%
- remaining activity at 0.2 µM (340 wild-type kinases [5]; 0.2 µM 2015, read-out: SRPK1 residual activity): 108%
- remaining activity at 1 µM (340 wild-type kinases [5]; 1 µM 2015, read-out: SRPK1 residual activity): 105%
- remaining activity at 0.2 µM (340 wild-type kinases [5]; SRPK1, 0.2 µM, read-out: residual activity): 108%
- remaining activity at 1 µM (340 wild-type kinases [5]; SRPK1, 1 µM, read-out: residual activity): 105%
- remaining activity at 0.2 µM (340 wild-type kinases [6]; 0.2 µM 2015, read-out: ERBB4 residual activity): 120%
- remaining activity at 1 µM (340 wild-type kinases [6]; 1 µM 2015, read-out: ERBB4 residual activity): 101%
- remaining activity at 0.2 µM (340 wild-type kinases [6]; ERBB4, 0.2 µM, read-out: residual activity): 120%
- remaining activity at 1 µM (340 wild-type kinases [6]; ERBB4, 1 µM, read-out: residual activity): 101%
- remaining activity at 0.2 µM (340 wild-type kinases [7]; 0.2 µM 2015, read-out: HIPK4 residual activity): 96.4%
- remaining activity at 1 µM (340 wild-type kinases [7]; 1 µM 2015, read-out: HIPK4 residual activity): 95.4%
- remaining activity at 0.2 µM (340 wild-type kinases [7]; HIPK4, 0.2 µM, read-out: residual activity): 96.4%
- remaining activity at 1 µM (340 wild-type kinases [7]; HIPK4, 1 µM, read-out: residual activity): 95.5%
